One assay concerns E. coli 1346. Description: Antibacterial activity of the products per se, serial dilution method in liquid medium (Test E). The assay is classed as cell-based. As to conditions: product per se; for MIC E. coli 1346 (E): test E. The text has this: The antibacterial activity of the products per se is illustrated on the basis of Table 3 hereinafter, the minimum inhibitory concentration […] in vitro against E. coli 1346 being determined using the serial dilution method in liquid medium: […]

The subject of assay [1] is Citrobacter freundii 1982. Description: MIC in vitro of a 1:4 combination of ceftriaxone with a compound of formula I (Test D). The assay is classed as cell-based. As to conditions: for MIC C. freundii 1982 (D): test D. The procedure: The minimum inhibitory concentration in vitro ([…]) of a 1:4 combination of ceftriaxone with a compound of formula I against Citrobacter freundii 1982 was measured and compiled in Table 2 hereinafter.

The mark [2] stands for this setting: Table 4, 1:4 combination of ceftriaxone with the compound.

Counter-ions that a name gives are not always drawn.

`CC(=O)N1C[C@H]2OC(CSc3nnc(N)s3)=C(C(=O)O)N3C(=O)[C@@H]1[C@@H]23` [Example 33, (1aS,3aR,6bS)-2-Acetyl-5-(5-amino-1,3,4-thiadiazol-2-ylsulphanylmethyl)-1-oxo-1,1a,2,3,3a,6b-hexahydro-4-oxa-2,6a-diazacyclobut[cd]indene-6-carboxylicacid sodium salt]: the “MIC E. coli 1346 (E)” value against E. coli 1346 (Table 4) was 2 µg/mL. The “MIC C. freundii 1982 (D)” value in assay [1] (setting [2]) is 2 µg/mL.
Turning to `NC(=O)OCC1=C(C(=O)O)N2C(=O)[C@@H]3[C@H]2[C@H](C1)CN3C(=O)NCc1ccc(O)cc1` [27(h), (1aS,3aR,6bR)-5-Carbamoyloxymethyl-2-(4-hydroxybenzylcarbamoyl)-1-oxo-1a,2,3,3a,4,6b-hexahydro-1H-2,6a-diaza-cyclobut[cd]indene-6-carboxylic acid sodium salt], the “MIC E. coli 1346 (E)” value with E. coli 1346 (Table 4) was greater than 32 µg/mL. Besides, the “MIC C. freundii 1982 (D)” value in assay [1] (setting [2]) was 0.25 µg/mL.
`Cn1nnnc1SCC1=C(C(=O)O)N2C(=O)[C@@H]3[C@H]2[C@H](C1)CN3C=O` [Example 19(k), (1aS,3aR,6bR)-2-Formyl-5-(1-methyl-1H-tetrazol-5-ylsulphanylmethyl)-1-oxo-1a,2,3,3a,4,6b-hexahydro-1H-2,6a-diazacyclobut[cd]indene-6-carboxylic acid sodium salt]: the “MIC E. coli 1346 (E)” value against E. coli 1346 (Table 4) stood at 0.5 µg/mL. In addition, the “MIC C. freundii 1982 (D)” value in assay [1] (setting [2]) worked out at 0.25 µg/mL.
Turning to `O=C(O)C1=C(CSc2nc(-c3cccnc3)cs2)C[C@@H]2CN(C(=O)C(F)(F)F)[C@@H]3C(=O)N1[C@H]23` [67(b), (1aS,3aR,6bR)-1-Oxo-5-(4-pyridin-3-yl-thiazol-2-ylsulphanylmethyl)-2-trifluoroacetyl-la,2,3,3a,4,6b-hexahydro-1H-2,6a-diazacyclobut[cd]indene-6-carboxylic acid sodium salt], in the assay with E. coli 1346 (Table 4), the “MIC E. coli 1346 (E)” value worked out at 4 µg/mL. For the same compound, the “MIC C. freundii 1982 (D)” value in assay [1] (setting [2]) came to 8 µg/mL.
In the same order, the values of `O=C(NCC(F)(F)F)OCC1=C(C(=O)O)N2C(=O)[C@H]3NC[C@@H](C1)[C@H]32` [Example 91, (1aS,3aR,6bR)-1-Oxo-5-(2,2,2-trifluoroethylcarbamoyloxymethyl)-1a,2,3,3a,4,6b-hexahydro-1H-2,6a-diazacyclobut[cd]indene-6-carboxylic acid trifluoroacetate] are 4 µg/mL and 2 µg/mL.
Turning to `O=C(O)C1=C(Sc2ccncc2)C[C@@H]2CN(C(=O)C(F)(F)F)[C@@H]3C(=O)N1[C@H]23` [3(ai), (1aS,3aR,6bR)-1-Oxo-5-(pyridin-4-ylsulphanyl)-2-trifluoracetyl-1a,2,3,3a,4,6b-hexahydro-1H-2,6a-diazacyclobut[cd]indene-6-carboxylic acid sodium salt], the “MIC E. coli 1346 (E)” value against E. coli 1346 (Table 4) was greater than 32 µg/mL. Further, the “MIC C. freundii 1982 (D)” value in assay [1] (setting [2]) was 32 µg/mL.
For the compound `NC(=O)Cn1nnnc1SCC1=C(C(=O)O)N2C(=O)[C@@H]3[C@H]2[C@H](C1)CN3C=O` [70(c), (1aS,3aR,6bR)-5-(1-Carbamoylmethyl-1H-tetrazol-5-ylsulphanylmethyl)-2-formyl-1-oxo-1a,2,3,3a,4,6b-hexahydro-1H-2,6a-diazacyclobut[cd]indene-6-carboxylic acid sodium salt], the “MIC E. coli 1346 (E)” value against E. coli 1346 (Table 5, particularly preferred products) amounted to 1 µg/mL. The “MIC C. freundii 1982 (D)” value in assay [1] (Table 5, particularly preferred products, 1:4 combination with ceftriaxone) turned out to be 0.25 µg/mL.
`N#CCC(=O)N1C[C@H]2CC(Sc3nnc(N)s3)=C(C(=O)O)N3C(=O)[C@@H]1[C@@H]23` [3(ag), (1aS,3aR,6bR)-5-(5-Amino-1,3,4-thiadiazol-2-ylsulphanyl)-2-cyanoacetyl-1-oxo-1a,2,3,3a,4,6b-hexahydro-1H-2,6a-diazacyclobut[cd]indene-6-carboxylic acid sodium salt]: the “MIC E. coli 1346 (E)” value in the assay on E. coli 1346 (Table 4) worked out at 8 µg/mL. In addition, the “MIC C. freundii 1982 (D)” value in assay [1] (setting [2]) came to 2 µg/mL.
For `CNC(=O)Cn1nnnc1SCC1=C(C(=O)O)N2C(=O)[C@@H]3[C@H]2[C@H](C1)CN3C(C)=O` [74(a), (1aS,3aR,6bR)-2-Acetyl-5-(1-methylcarbamoylmethyl-1H-tetrazol-5-ylsulphanylmethyl)-1-oxo-1a,2,3,3a,4,6b-hexahydro-1H-2,6a-diazacyclobut[cd]indene-6-carboxylic acid sodium salt], the “MIC E. coli 1346 (E)” value in the assay on E. coli 1346 (Table 4) worked out at 2 µg/mL. For the same compound, in assay [1] (setting [2]), the “MIC C. freundii 1982 (D)” value was found to be 1 µg/mL.
With `CS(=O)(=O)OC1=C(C(=O)O)N2C(=O)[C@@H]3[C@H]2[C@H](C1)CN3C(=O)NCc1ccc(S(N)(=O)=O)cc1` [9(h), (1aS,3aR,6bR)-5-Methylsulphonyloxy-1-oxo-2-(4-sulphamoylbenzylcarbamoyl)-1a,2,3,3a,4,6b-hexahydro-1H-2,6a-diazacyclobut[cd]indene-6-carboxylic acid sodium salt], in the assay with E. coli 1346 (Table 3, liquid medium), the “MIC E. coli 1346” value is 32 µg/mL. The “MIC C. freundii 1982” value in assay [1] (Table 2, 1:4 combination of ceftriaxone with the compound) was determined as 0.5 µg/mL.
Take `Cc1nnc(SCC2=C(C(=O)O)N3C(=O)[C@@H]4[C@H]3[C@@H](CN4C(=O)Nc3ccc(O)cc3)O2)s1` [Example 31(a), (1aS,3aR,6bS)-2-(4-Hydroxy-phenylcarbamoyl)-5-(5-methyl-1,3,4-thiadiazol-2-ylsulphanylmethyl)-1-oxo-1,1a,2,3,3a,6 b-hexahydro-4-oxa-2,6a-diazacyclobut[cd]indene-6-carboxylic acid sodium salt]: in the assay with E. coli 1346 (Table 4), the “MIC E. coli 1346 (E)” value came to 8 µg/mL. For the same compound, in assay [1] (setting [2]), the “MIC C. freundii 1982 (D)” value came out at 0.5 µg/mL.
On to `CC(=O)N1C[C@H]2CC(COC(=O)NCc3ccc(O)cc3)=C(C(=O)O)N3C(=O)[C@@H]1[C@@H]23` [102(a), (1aS,3aR,6bR)-2-Acetyl-5-[(4-hydroxy-benzyl)-carbamoyloxymethyl]-1-oxo-1a,2,3,3a,4,6b-hexahydro-1H-2,6a-diazacyclobut[cd]indene-6-carboxylic acid sodium salt], for which the “MIC E. coli 1346 (E)” value in the assay on E. coli 1346 (Table 4) came out at 0.5 µg/mL. Further, in assay [1] (setting [2]), the “MIC C. freundii 1982 (D)” value was 2 µg/mL.
For `CC(=O)N1C[C@H]2CC(COC(=O)Nc3ccc(O)cc3)=C(C(=O)O)N3C(=O)[C@@H]1[C@@H]23` [90(a), (1aS,3aR,6bR)-2-Acetyl-5-(4-hydroxy-phenylcarbamoyloxymethyl)-1-oxo-1a,2,3,3a,4,6b-hexahydro-1H-2,6a-diazacyclobut[cd]indene-6-carboxylic acid sodium salt], the “MIC E. coli 1346 (E)” value against E. coli 1346 (Table 4) was determined as 0.5 µg/mL. The “MIC C. freundii 1982 (D)” value in assay [1] (setting [2]) worked out at 1 µg/mL.
For `Cc1nnc(SC2=C(C(=O)O)N3C(=O)[C@@H]4[C@H]3[C@H](C2)CN4C(=O)C(F)(F)F)s1` [Example 3(ad), (1aS,3aR,6bR)-5-(5-Methyl-1,3,4-thiadiazol-2-ylsulphanyl)-1-oxo-2-trifluoracetyl-1a,2,3,3a,4,6b-hexahydro-1H-2,6a-diazacyclobut[cd]indene-6-carboxylic acid sodium salt] the same measures were 16 µg/mL and 8 µg/mL.
As for `CN1CCN(C(=O)OCC2=C(C(=O)O)N3C(=O)[C@H]4NC[C@@H](C2)[C@H]43)CC1` [Example 103, (1aS,3aR,6bR)-5-(4-Methyl-piperazin-1-ylcarbonyloxymethyl)-1-oxo-1a,2,3,3a,4,6b-hexahydro-1H-2,6a-diazacydobut[cd]indene-6-carboxylic acid trifluoroacetate], the “MIC E. coli 1346 (E)” value with E. coli 1346 (Table 4) is 1 µg/mL. For the same compound, the “MIC C. freundii 1982 (D)” value in assay [1] (setting [2]) stood at 2 µg/mL.
In the same order, the values of `[N-]=[N+]=NCC1=C(C(=O)O)N2C(=O)[C@@H]3[C@H]2[C@H](C1)CN3C(=O)Nc1ccc(O)cc1` [Example 82, (1aS,3aR,6bR)-5-Azidomethyl-2-(4-hydroxy-phenylcarbamoyl)-1-oxo-1a,2,3,3a,4,6b-hexahydro-1H-2,6a-diazacyclobut[cd]indene-6-carboxylic acid sodium salt] are 16 µg/mL and 0.25 µg/mL.
On to `CCN1C[C@H]2CC(COC(N)=O)=C(C(=O)O)N3C(=O)[C@@H]1[C@@H]23` [59(c), (1aS,3aR,6bR)-5-Carbamoyloxylmethyl-2-ethyl-1-oxo-1a,2,3,3a,4,6b-hexahydro-1H-2,6a-diazacyclobut[cd]indene-6-carboxylic acid sodium salt], for which, in the assay with E. coli 1346 (Table 4), the “MIC E. coli 1346 (E)” value was found to be 8 µg/mL. Moreover, the “MIC C. freundii 1982 (D)” value in assay [1] (setting [2]) was 2 µg/mL.
For the compound `O=C([O-])C[n+]1ccc(SCC2=C(C(=O)O)N3C(=O)[C@@H]4[C@H]3[C@H](C2)CN4C(=O)NCc2ccccc2)cc1` [Example 51, (1aS,3aR,6bR)-[4-(2-Benzylcarbamoyl-6-carboxy-1-oxo-1a,2,3,3a,4,6b-hexahydro-1H-2,6a-diazacyclobut[cd]inden-5-ylmethylsulphanyl)-pyridin-2-ylio]-acetate sodium salt], the “MIC E. coli 1346 (E)” value against E. coli 1346 (Table 4) was greater than 32 µg/mL. Moreover, the “MIC C. freundii 1982 (D)” value in assay [1] (setting [2]) was 1 µg/mL.
In the case of `N[C@@H](C(=O)N1C[C@H]2CC(COC(=O)NCc3ccncc3)=C(C(=O)O)N3C(=O)[C@@H]1[C@@H]23)c1ccccc1` [100(d), (1aS,3aR,6bR)-2-[(R)-2-phenyl-glycyl]-1-oxo-5-(pyridin-4-ylmethylcarbamoyloxymethyl)-1a,2,3,3a,4,6b-hexahydro-1H-2,6a-diazacyclobut[cd]indene-6-carboxylic acid hydrochloride], in the assay on E. coli 1346 (Table 4), the “MIC E. coli 1346 (E)” value came out at 0.5 µg/mL. The “MIC C. freundii 1982 (D)” value in assay [1] (setting [2]) is 2 µg/mL.
For the compound `CC(=O)N1C[C@H]2OC(CSc3cc(C)nc4nc(C(N)=O)nn34)=C(C(=O)O)N3C(=O)[C@@H]1[C@@H]23` [32(c), (1aS,3aR,6bS)-2-Acetyl-5-(2-carbamoyl-S-methyl[1,2,4]-triazolo[1,5-a]pyrimidin-7-ylsulphanylmethyl)-1-oxo-1,1a,2,3,3a,6b-hexahydro-4-oxa-2,6a-diazacyclobut[cd]indene-6-carboxylic acid sodium salt], in the assay with E. coli 1346 (Table 4), the “MIC E. coli 1346 (E)” value turned out to be 4 µg/mL. Also, the “MIC C. freundii 1982 (D)” value in assay [1] (setting [2]) was 32 µg/mL.

The values above are taken from patent US5464617A, “β-lactam compounds” (Hoffmann-La Roche Inc., priority 1994, dated 1995).
